Patent US20260365670A1, “EGFR INHIBITORS AND USES THEREOF” (DIZAL (JIANGSU) PHARMACEUTICAL CO., LTD., priority 2022, published 2026)
pIC50: −log10 of the molar value. Read-outs that look alike come from different tables or passages of the source.

Assays:
EGFR[T790M/C797S/L858R] = target: T1, EGFR[T790M/C797S/L858R] (Homo sapiens, UniProt P00533, C797S/L858R/T790M); assay: Inhibition of EGFR[T790M/C797S/L858R] biochemical enzymatic activity (HTRF); details: EGFR[T790M/C797S/L858R], 1 mM ATP, 1 h at room temperature
T1 construct: purchased Carna Bio
Method in brief: (§1)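 1 mM ATP, 1 μM biotin-TK peptide, 5 mM MgCl2, 1 mM MnCl2, 0.01% CHAPS, 1 mM DTT, 0.5% DMSO; 1 h RT; EDTA stop; HTRF 665/615 nm; IC50 via 4PL.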

EGFR L858R = target: T2, EGFR L858R (Homo sapiens, UniProt P00533, L858R); assay: Inhibition of EGFR L858R biochemical enzymatic activity (HTRF); details: 1 mM ATP, 1 h at room temperature
T2 construct: purchased Carna Bio
Method in brief: as §1

EGFR wild type = target: T3, EGFR wild type (Homo sapiens, UniProt P00533); assay: Inhibition of EGFR wild type biochemical enzymatic activity (HTRF); details: EGFR wild type, 1 mM ATP, 1 h at room temperature
T3 construct: purchased Carna Bio
Method in brief: as §1

[1] = tested on: Ba/F3 cells expressing EGFR mutations; assay: Cell proliferation assay, Ba/F3 cells expressing EGFR mutations (CellTiter-Glo, 72 hours); format: cell-based; details: Mus musculus, BaF3, 72 h
Method in brief: (§2)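 Seed Ba/F3 at 5000 cells/well and PC-9 at 500 cells/well (10% FBS RPMI1640); incubate overnight; add compound dilution series; read a G0 plate; incubate; read G3; GI50 from best-fit curve.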

A-431 = assay: Cell proliferation assay, A-431 cells (GI50, Table 6); format: cell-based; details: Homo sapiens, A-431, A-431 cells
EGFR Exon19Del = target: T4, EGFR Exon19Del (Homo sapiens, UniProt P00533, DEL746-750); assay: Inhibition of EGFR Exon19Del biochemical enzymatic activity (HTRF); details: 1 mM ATP, 1 h at room temperature
T4 construct: purchased Carna Bio
Method in brief: as §1

EGFR Exon19Del/T790M = target: T5, EGFR Exon19Del/T790M (Homo sapiens, UniProt P00533, DEL746-750/T790M); assay: Inhibition of EGFR Exon19Del/T790M biochemical enzymatic activity (HTRF); details: EGFR Exon19Del/T790M, 1 mM ATP, 1 h at room temperature
T5 construct: purchased Carna Bio
Method in brief: as §1

[2] = target: T6, EGFR[T790M/C797S/d746-750] (Homo sapiens, UniProt P00533, C797S/DEL746-750/T790M); assay: Inhibition of EGFR[T790M/C797S/d746-750] biochemical enzymatic activity (HTRF); details: 1 mM ATP, 1 h at room temperature
T6 construct: purchased Carna Bio
Method in brief: as §1

EGFR (C797S L858R) = target: T7, EGFR (C797S L858R) (Homo sapiens, UniProt P00533, C797S/L858R); assay: Inhibition of EGFR (C797S L858R) biochemical enzymatic activity (HTRF); details: EGFR (C797S L858R), 1 mM ATP, 1 h at room temperature
T7 construct: purchased signalchem
Method in brief: as §1

EGFR L858R/T790M = target: T8, EGFR L858R/T790M (Homo sapiens, UniProt P00533, L858R/T790M); assay: Inhibition of EGFR L858R/T790M biochemical enzymatic activity (HTRF); details: EGFR L858R/T790M, 1 mM ATP, 1 h at room temperature
T8 construct: purchased Carna Bio
Method in brief: as §1

EGFR (d746-750 C797S) = target: T9, EGFR (d746-750 C797S) (Homo sapiens, UniProt P00533, C797S/DEL746-750); assay: Inhibition of EGFR (d746-750 C797S) biochemical enzymatic activity (HTRF); details: EGFR (d746-750 C797S), 1 mM ATP, 1 h at room temperature
T9 construct: purchased signalchem
Method in brief: as §1

PC-9 = assay: Cell proliferation assay, PC-9 cells (CellTiter-Glo, 72 hours); format: cell-based; details: Homo sapiens, PC-9, 72 h, PC9 cells, read-out: GI50 PC9
Method in brief: as §2

[3] = read-out: IC50 @T790M- C797S - L858R
[4] = BaF3 cells, EGFR DEL19 - C797S, read-out: GI50 DEL19 - C797S/BaF3
[5] = BaF3 cells, EGFR L858R - C797S, read-out: GI50 L858R - C797S/BaF3
[6] = BaF3 cells, EGFR L858R - T790-C797S, read-out: GI50 L858R - T790-C797S/BaF3
[7] = BaF3 cells, EGFR L858R - T790M, read-out: GI50 L858R - T790M/BaF3
[8] = BaF3 cells, EGFR L858R, read-out: GI50 L858R/BaF3
[9] = EGFR DEL19 - T790M, read-out: GI50 DEL19 - T790M
[10] = EGFR Exon19Del, read-out: IC50 @Del19
[11] = EGFR[T790M/C797S/d746-750], read-out: IC50 @T790M - C797S - Del19
[12] = BaF3 cells, EGFR DEL19 - T790-C797S, read-out: GI50 DEL19 - T790-C797S/BaF3

T5 sequence (P00533 with tags, fused parts or gaps DEL746-750/T790M limits assumed): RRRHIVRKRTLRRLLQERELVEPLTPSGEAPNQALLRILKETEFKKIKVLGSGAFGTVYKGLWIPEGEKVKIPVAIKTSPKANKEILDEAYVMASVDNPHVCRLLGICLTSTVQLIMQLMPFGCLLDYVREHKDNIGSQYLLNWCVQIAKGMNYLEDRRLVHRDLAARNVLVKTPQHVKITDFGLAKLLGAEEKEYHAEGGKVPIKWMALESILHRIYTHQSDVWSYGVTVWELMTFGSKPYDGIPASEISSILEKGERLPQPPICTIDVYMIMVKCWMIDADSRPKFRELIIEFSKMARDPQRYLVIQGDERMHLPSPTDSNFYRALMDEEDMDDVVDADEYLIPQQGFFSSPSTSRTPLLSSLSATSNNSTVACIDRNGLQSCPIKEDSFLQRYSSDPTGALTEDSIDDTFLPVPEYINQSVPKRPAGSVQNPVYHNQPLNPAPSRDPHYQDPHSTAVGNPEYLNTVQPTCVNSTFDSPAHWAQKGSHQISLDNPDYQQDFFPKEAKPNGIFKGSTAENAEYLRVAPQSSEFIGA
T1 sequence (P00533 25-1210 T790M/C797S/L858R): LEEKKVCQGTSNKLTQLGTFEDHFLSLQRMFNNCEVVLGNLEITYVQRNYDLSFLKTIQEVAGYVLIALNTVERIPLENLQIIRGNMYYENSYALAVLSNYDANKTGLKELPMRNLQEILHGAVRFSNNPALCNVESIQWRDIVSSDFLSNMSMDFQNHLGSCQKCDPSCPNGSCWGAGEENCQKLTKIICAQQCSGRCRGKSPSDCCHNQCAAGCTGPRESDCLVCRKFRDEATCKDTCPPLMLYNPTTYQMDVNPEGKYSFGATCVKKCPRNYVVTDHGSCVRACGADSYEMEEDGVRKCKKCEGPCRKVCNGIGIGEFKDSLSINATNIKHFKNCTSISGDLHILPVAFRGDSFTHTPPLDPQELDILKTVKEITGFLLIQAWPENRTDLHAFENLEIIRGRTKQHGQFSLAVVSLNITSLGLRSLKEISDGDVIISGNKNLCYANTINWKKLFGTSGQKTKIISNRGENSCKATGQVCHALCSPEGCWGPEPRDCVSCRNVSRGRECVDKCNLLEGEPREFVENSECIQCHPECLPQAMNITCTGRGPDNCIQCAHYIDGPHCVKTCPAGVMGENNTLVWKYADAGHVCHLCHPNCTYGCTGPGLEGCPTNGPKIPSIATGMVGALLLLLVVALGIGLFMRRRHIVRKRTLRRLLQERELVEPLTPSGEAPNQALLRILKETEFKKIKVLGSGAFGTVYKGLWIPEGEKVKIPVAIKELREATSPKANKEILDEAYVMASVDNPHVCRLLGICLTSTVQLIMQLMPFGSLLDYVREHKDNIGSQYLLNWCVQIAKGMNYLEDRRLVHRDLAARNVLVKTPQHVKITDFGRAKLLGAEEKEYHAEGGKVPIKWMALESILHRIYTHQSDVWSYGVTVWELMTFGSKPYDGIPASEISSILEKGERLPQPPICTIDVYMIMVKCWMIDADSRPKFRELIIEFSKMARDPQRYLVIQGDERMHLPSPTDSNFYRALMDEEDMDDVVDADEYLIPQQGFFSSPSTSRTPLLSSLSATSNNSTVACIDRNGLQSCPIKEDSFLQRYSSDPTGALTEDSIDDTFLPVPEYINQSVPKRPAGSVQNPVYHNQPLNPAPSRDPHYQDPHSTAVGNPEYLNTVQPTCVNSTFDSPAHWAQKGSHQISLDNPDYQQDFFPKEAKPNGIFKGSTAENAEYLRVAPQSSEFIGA
T8 sequence (P00533 25-1210 T790M/L858R): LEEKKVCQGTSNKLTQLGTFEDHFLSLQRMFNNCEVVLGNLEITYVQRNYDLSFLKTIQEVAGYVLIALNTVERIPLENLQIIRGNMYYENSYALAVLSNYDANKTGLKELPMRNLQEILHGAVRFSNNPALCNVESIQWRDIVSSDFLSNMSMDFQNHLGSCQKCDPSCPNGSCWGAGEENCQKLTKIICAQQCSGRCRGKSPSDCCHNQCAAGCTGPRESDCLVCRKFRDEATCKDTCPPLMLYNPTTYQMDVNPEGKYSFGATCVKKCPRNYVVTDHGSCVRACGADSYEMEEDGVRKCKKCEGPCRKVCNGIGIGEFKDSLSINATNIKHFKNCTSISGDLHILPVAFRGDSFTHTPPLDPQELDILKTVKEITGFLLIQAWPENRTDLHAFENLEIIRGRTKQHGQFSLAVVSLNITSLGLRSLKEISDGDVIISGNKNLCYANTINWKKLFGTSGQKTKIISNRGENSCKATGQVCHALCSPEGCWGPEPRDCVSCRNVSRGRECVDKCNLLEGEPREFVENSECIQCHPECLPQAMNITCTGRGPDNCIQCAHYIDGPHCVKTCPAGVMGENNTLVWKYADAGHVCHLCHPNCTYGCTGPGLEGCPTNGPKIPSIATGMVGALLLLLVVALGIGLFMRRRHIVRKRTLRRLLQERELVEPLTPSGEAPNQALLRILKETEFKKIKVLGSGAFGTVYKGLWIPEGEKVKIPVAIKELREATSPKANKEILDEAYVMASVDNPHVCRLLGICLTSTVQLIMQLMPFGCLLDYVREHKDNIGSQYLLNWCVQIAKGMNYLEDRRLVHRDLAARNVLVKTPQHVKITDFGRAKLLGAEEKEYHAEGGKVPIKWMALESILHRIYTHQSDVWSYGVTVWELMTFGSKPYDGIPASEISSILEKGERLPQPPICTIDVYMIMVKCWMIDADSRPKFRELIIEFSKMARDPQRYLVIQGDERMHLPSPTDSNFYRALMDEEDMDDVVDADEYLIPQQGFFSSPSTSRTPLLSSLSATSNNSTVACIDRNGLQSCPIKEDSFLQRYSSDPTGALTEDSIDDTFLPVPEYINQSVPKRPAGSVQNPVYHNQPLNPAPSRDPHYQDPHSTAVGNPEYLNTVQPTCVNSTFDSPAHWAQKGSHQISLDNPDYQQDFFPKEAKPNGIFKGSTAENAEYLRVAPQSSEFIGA
T9 sequence (P00533 with tags, fused parts or gaps DEL746-750/C797S limits assumed): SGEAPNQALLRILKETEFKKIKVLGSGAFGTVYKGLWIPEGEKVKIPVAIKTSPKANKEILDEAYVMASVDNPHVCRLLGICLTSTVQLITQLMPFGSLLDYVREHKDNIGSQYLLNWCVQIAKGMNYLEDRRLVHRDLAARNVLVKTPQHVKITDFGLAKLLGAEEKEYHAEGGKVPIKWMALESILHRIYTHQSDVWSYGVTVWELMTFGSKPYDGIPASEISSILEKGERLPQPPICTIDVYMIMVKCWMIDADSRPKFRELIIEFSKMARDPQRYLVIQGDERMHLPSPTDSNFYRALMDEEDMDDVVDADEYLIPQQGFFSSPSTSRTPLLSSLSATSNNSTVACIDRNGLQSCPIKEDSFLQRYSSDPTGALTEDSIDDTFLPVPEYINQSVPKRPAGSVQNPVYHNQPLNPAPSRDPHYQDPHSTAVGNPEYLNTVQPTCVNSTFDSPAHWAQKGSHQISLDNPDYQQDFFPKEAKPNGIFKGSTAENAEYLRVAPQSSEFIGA
T6 sequence (P00533 with tags, fused parts or gaps DEL746-750/T790M/C797S limits assumed): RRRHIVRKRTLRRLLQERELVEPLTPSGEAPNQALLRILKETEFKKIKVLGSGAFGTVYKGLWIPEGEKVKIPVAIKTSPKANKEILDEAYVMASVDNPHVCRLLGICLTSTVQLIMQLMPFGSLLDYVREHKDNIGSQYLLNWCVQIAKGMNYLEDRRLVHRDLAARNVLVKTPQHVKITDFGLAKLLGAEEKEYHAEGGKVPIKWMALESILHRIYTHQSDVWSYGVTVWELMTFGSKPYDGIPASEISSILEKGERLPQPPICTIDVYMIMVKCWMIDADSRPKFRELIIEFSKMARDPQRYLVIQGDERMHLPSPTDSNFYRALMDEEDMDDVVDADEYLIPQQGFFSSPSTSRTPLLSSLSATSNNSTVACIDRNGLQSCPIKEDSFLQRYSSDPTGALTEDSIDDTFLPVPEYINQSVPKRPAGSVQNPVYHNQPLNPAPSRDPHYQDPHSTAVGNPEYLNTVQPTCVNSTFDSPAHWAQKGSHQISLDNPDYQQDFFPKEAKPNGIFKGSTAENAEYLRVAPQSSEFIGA
T4 sequence (P00533 with tags, fused parts or gaps DEL746-750 limits assumed): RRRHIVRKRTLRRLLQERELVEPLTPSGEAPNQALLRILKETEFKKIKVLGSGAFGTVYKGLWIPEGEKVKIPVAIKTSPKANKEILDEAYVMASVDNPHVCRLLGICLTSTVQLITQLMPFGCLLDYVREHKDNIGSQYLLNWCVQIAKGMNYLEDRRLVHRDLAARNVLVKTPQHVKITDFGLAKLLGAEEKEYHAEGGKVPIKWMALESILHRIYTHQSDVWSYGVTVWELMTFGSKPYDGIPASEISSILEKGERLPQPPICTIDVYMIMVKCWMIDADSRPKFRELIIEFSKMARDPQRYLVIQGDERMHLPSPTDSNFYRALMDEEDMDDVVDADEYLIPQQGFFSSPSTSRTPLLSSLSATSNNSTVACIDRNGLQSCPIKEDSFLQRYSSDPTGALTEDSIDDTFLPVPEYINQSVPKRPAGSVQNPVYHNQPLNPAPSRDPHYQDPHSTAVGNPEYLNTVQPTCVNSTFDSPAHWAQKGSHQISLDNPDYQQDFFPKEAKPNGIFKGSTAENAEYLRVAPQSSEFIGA

| pIC50 (EGFR[T790M/C797S/L858R]; [3]) | pIC50 (EGFR L858R; read-out: IC50 @L858R) | pIC50 (EGFR wild type; read-out: IC50 @WT) | GI50 [1, 4] | GI50 [1, 5] | GI50 [1, 6] | GI50 [1, 7] | GI50 [1, 8] | GI50 [1, 9] | GI50 (A-431) | pIC50 (EGFR Exon19Del; [10]) | pIC50 (EGFR Exon19Del/T790M; read-out: IC50 @Del19-T790M) | pIC50 [2, 11] | pIC50 (EGFR (C797S L858R); read-out: IC50 @L858-C797S) | pIC50 (EGFR L858R/T790M; read-out: IC50 @L858R-T790M) | pIC50 (EGFR (d746-750 C797S); read-out: IC50 @Del19-C797S) | GI50 (PC-9) | GI50 [1, 12] | Structure (SMILES) | further results |
| --- | --- | --- | --- | --- | --- | --- | --- | --- | --- | --- | --- | --- | --- | --- | --- | --- | --- | --- | --- |
| 7.26 | < 5.30 | < 5.30 | 57 nM | 297 nM | 8.8 nM | 308 nM | 286 nM | 29 nM | 3230 nM | 6.30 | 8.15 | 8.49 | < 5.30 | 6.35 | 6.71 | 438 nM |  | Cc1cc2cc(n1)-c1cnn(C)c1OCCCCCn1c(nc3ccc4c(c31)CCNC4)NC2=O [Example B16, 5,30-dimethyl-7-oxa-4,5,13,18,24,26,31-heptaazahexacyclo[26.3.1.0^{2,6}.0^{13,25}.0^{14,23}.0^{15,20}]dotriaconta-1(31),2(6),3,14,20,22,24,28(32),29-nonaen-27-one] |  |
| 5.38 | < 5.30 | < 5.30 | 26 nM | 82 nM | 6 nM | 21 nM | 114 nM | 8.7 nM | 1090 nM | < 5.30 | 6.89 | 7.29 | < 5.30 | < 5.30 | 5.68 | 71 nM | 10 nM | Cc1cc2cc(n1)-c1cnn(C)c1OCCCCCn1c(nc3ccc4c(c31)CCN(C1COC1)C4)NC2=O [Example B17, 5,30-Dimethyl-18-(oxetan-3-yl)-7-oxa-4,5,13,18,24,26,31-heptaazahexacyclo[26.3.1.0^{2,6}.0^{13,25}.0^{14,23}.0^{15,20}]dotriaconta-1(31),2(6),3,14,20,22,24,28(32),29-nonaen-27-one] |  |
|  |  |  | 2 nM | 22 nM | 2 nM | 5 nM | 17 nM | 2 nM | 3600 nM |  |  |  |  |  |  | 19 nM | 2 nM | Cc1cc2cc(n1)-c1cnn(C)c1OCCN1CC3CCC(CC3)(C1)n1c(nc3ccc(N4CCC(N(C)C)CC4)cc31)NC2=O [Example B27, 5-[4-(dimethylamino)piperidin-1-yl]-15,21-dimethyl-23-oxa-2,9,11,16,20,21,26-heptaazaheptacyclo[26.2.2.1^{1,26}.1^{13,17}.0^{2,10}.0^{3,8}.0^{18,22}]tetratriaconta-3,5,7,9,13,15,17(34),18(22),19-nonaen-12-one] | pIC50 (EGFR[T790M/C797S/L858R]; IC50 @T790M- C797S - L858R): 8.42; pIC50 (EGFR L858R; IC50 @L858R): 7.17; pIC50 (EGFR wild type; IC50 @WT): 5.45; pIC50 (EGFR Exon19Del; IC50 @Del19, EGFR Exon19Del): 7.96; pIC50 (EGFR Exon19Del/T790M; IC50 @Del19-T790M): 8.08; pIC50 ([2]; IC50 @T790M - C797S - Del19, EGFR[T790M/C797S/d746-750]): 8.51; pIC50 (EGFR (C797S L858R); IC50 @L858-C797S): 7.52; pIC50 (EGFR L858R/T790M; IC50 @L858R-T790M): 8.08; pIC50 (EGFR (d746-750 C797S); IC50 @Del19-C797S): 8.20 |
| 8.23 | 6.49 | < 5.30 | 17 nM | 116 nM | 11 nM | 34 nM | 85 nM | 5 nM | 7810 nM | 7.64 | 8.02 | 8.11 | 6.84 | 7.77 | 7.85 | 98 nM | 5 nM | Cc1cc2cc(n1)-c1cnn(C)c1OCCN1CC3CCC(CC3)(C1)n1c(nc3ccc(N4CC[C@H](N(C)C)C4)cc31)NC2=O [Example B28] |  |
| 8.25 | 6.96 | < 5.30 | 3 nM | 35 nM | 4 nM | 9 nM | 22 nM | 2 nM | 3560 nM | 7.77 | 7.92 | 8.31 | 7.19 | 7.96 | 8.06 | 33 nM | 2 nM | Cc1cc2cc(n1)-c1cnn(C)c1OCCN1CC3CCC(CC3)(C1)n1c(nc3ccc(N4CCC5(CC4)CCN5C)cc31)NC2=O [Example B30] |  |
| 8.41 | 6.71 | < 5.30 | 11 nM | 78 nM | 7 nM | 20 nM | 64 nM | 4 nM | 7410 nM | 7.77 | 8.18 | 8.64 | 6.93 | 7.96 | 7.89 | 81 nM | 3 nM | Cc1cc2cc(n1)-c1cnn(C)c1OCCN1CC3CCC(CC3)(C1)n1c(nc3ccc(N(C)CCN(C)C)cc31)NC2=O [Example B32] |  |
| 8.21 | 6.67 | < 5.30 | 10 nM | 69 nM | 7 nM | 13 nM | 62 nM | 4 nM | 3740 nM | 7.55 | 8.00 | 8.52 | 6.88 | 7.70 | 7.66 | 75 nM | 3 nM | Cc1cc2cc(n1)-c1cnn(C)c1OCCN1CC3CCC(CC3)(C1)n1c(nc3ccc(N(C)CCCN(C)C)cc31)NC2=O [Example B33] |  |
| 8.08 | 6.38 | < 5.30 | 11 nM | 83 nM | 9 nM | 17 nM | 64 nM | 4 nM | 4520 nM | 7.41 | 7.92 | 8.27 | 6.69 | 7.80 | 7.70 | 86 nM | 4 nM | Cc1cc2cc(n1)-c1cnn(C)c1OCCN1CC3CCC(CC3)(C1)n1c(nc3ccc(N4CC5CN(C)CC5C4)cc31)NC2=O (centres unmarked) [Example B34] |  |
| 8.30 | 6.42 | < 5.30 | 10 nM | 108 nM | 7 nM | 20 nM | 62 nM | 3 nM | 6630 nM | 7.52 | 8.05 | 8.22 | 6.73 | 7.89 | 7.85 | 121 nM | 3 nM | Cc1cc2cc(n1)-c1cnn(C)c1OCCN1CC3CCC(CC3)(C1)n1c(nc3ccc(N4CC5CCN(C)C5C4)cc31)NC2=O (centres unmarked) [Example B35] |  |
